{
  "source": "patent US8987266B2",
  "about": "“EGFR mutations” (Genentech, Inc., priority 2004, dated 2015)",
  "key": {"HN5 xenografts": {"test_system": "HN5 xenografts", "conditions": "nude mice; cited from earlier work"}, "[1]": {"conditions": "combined with paclitaxel, cisplatin, gemcitabine, and doxorubicin; cited from earlier work"}, "A431 xenografts": {"test_system": "A431 xenografts", "conditions": "nude mice; cited from earlier work"}, "H1975 tumor cell line": {"test_system": "H1975 tumor cell line", "assay": "treatment of H1975 tumor cell line", "assay_type": "cell-based", "conditions": "H1975, EGFR T790M in combination with L858R"}},
  "data": [
    {"compound": "C#Cc1cccc(Nc2ncnc3cc(OCCOC)c(OCCOC)cc23)c1", "note": "[erlotinib]", "values": [
      {"measurement": "growth inhibition of HN5 xenografts", "setting": "HN5 xenografts", "value": "marked growth inhibition"},
      {"measurement": "interaction with chemotherapy agents", "setting": "[1]", "value": "additive interaction"},
      {"measurement": "growth inhibition of A431 xenografts", "setting": "A431 xenografts", "value": "marked growth inhibition"},
      {"measurement": "response of tumor cell line to treatment", "setting": "H1975 tumor cell line", "value": "exhibited resistance"}
    ]}
  ]
}
